Experimental data as given in US8153389B2, “Methods for the identification of PI3K interacting molecules and for the purification of PI3K” (CellZone AG, priority 2006, dated 2012).

Experiments:
[1] = target: T1, PI3K gamma (Homo sapiens, UniProt P48736); experiment: Drug pulldown with immobilized phenylthiazole ligand 1 from MOLT-4 lysate, Western blot; format: binding; settings: 50 mg protein, FIG. 2A
T1 construct: PI3K gamma protein was captured by immobilized phenylthiazole ligand 1 from MOLT-4 cell lysate; endogenous in cells; host or cells: MOLT-4 cells (human T cell line, ATCC CRL-1582), cell lysate
Method: (§1) As biological material a cell lysate prepared from MOLT-4 cells was used. The drug pulldown experiment was performed as described in Example 2 with lysate samples containing 50 mg of protein. Captured proteins were eluted with DMSO containing buffer (lane 1), 100 μM of free phenylthiazole ligand 1 or SDS sample buffer (lane 3). The eluted samples were separated on SDS-polyacrylamide gels and transferred to membranes. The blots were first incubated with specific antibodies directed against PI3K gamma (FIG. 2A) and PI3K delta (FIG. 2B). Secondary detection antibodies labeled with fluorescent dyes for detection were used with the Odyssey infrared imaging system.
(§2) To this end a lysate of MOLT-4 cells was contacted with the affinity matrix described in example 1. […]
(§3) For Western blot analysis bound proteins were eluted from the affinity matrix and subsequently separated by SDS-Polyacrylamide gel electrophoresis. PI3K gamma and PI3K delta were detected with specific antibodies (FIG. 2).
(§4) MOLT-4 cells were homogenized in a Potter S homogenizer in lysis buffer: 50 mM Tris-HCl, 0.8% NP40, 5% glycerol, 150 mM NaCl, 1.5 mM MgCl2, 25 mM NaF, 1 mM sodium vanadate, 1 mM DTT, pH 7.5. […] The supernatant was transferred again to a fresh 50 ml falcon tube, the protein concentration was determined by a Bradford assay (BioRad) and samples containing 50 mg of protein per aliquot were prepared. […]

[2] = target: T2, PI3K delta (Homo sapiens, UniProt O00329); experiment: as above; format: binding; settings: 50 mg protein, FIG. 2B
T2 construct: immobilized phenylthiazole ligand 1 captures (pulls down) PI3K gamma and PI3K delta from the cell lysate; endogenous in cells; host or cells: MOLT-4 cells (human T cell line, ATCC CRL-1582), cell lysate
Method: as §1, §2, §3, §4

T1 sequence (P48736 whole entry): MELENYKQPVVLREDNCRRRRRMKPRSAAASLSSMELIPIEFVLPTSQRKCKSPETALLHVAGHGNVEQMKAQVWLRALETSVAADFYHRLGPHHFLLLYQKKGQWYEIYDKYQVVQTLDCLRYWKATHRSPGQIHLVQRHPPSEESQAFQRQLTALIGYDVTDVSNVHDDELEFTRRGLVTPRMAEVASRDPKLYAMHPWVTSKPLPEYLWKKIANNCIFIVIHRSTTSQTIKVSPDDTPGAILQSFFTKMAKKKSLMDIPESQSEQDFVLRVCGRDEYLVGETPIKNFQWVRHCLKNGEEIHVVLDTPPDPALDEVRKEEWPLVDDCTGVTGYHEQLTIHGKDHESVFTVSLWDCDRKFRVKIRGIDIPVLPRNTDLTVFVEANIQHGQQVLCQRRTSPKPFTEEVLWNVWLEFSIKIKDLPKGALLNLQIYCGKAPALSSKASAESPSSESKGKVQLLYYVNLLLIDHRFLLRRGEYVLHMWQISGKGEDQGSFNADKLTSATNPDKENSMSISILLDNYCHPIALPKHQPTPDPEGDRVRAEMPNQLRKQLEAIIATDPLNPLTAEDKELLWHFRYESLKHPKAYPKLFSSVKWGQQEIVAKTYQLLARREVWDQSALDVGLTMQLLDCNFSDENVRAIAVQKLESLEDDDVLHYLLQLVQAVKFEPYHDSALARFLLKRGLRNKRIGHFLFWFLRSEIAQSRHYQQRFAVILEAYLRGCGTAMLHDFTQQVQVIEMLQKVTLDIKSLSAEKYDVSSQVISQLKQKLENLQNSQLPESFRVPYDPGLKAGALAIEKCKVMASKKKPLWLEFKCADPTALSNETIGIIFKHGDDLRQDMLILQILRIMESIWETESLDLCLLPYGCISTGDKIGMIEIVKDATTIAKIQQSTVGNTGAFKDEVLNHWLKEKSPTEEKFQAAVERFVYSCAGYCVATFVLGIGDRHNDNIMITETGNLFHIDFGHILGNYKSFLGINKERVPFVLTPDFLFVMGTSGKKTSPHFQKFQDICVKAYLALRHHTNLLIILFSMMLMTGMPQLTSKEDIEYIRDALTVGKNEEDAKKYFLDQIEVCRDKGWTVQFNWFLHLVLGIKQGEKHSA
T2 sequence (O00329 whole entry): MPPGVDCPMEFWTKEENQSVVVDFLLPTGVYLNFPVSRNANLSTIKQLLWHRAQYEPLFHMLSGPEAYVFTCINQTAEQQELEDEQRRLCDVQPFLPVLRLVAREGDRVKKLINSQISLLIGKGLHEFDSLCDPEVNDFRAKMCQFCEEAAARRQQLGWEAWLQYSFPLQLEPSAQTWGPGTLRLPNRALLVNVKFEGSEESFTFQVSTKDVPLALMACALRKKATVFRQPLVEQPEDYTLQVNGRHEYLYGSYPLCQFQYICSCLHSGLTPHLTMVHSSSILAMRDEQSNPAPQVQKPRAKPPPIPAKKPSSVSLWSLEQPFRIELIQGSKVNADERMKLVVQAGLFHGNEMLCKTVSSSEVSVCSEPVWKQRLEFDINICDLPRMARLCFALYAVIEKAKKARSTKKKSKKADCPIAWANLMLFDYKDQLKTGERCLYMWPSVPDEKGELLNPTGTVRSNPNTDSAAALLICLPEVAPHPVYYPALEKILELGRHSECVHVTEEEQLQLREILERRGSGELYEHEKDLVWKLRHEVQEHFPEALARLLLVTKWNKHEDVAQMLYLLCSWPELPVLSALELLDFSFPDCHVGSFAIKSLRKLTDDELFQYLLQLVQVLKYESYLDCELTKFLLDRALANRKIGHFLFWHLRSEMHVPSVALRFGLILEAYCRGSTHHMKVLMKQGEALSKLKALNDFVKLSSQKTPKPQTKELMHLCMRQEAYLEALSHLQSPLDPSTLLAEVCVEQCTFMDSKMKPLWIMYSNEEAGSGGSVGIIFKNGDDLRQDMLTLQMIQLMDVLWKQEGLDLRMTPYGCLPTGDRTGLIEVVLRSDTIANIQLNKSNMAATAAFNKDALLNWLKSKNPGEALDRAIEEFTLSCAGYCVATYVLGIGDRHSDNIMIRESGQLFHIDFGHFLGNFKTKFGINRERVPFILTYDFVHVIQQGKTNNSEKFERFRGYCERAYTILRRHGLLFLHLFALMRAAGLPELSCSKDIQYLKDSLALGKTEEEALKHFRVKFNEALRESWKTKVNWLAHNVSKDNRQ
T2 sequence (P27986 whole entry partner): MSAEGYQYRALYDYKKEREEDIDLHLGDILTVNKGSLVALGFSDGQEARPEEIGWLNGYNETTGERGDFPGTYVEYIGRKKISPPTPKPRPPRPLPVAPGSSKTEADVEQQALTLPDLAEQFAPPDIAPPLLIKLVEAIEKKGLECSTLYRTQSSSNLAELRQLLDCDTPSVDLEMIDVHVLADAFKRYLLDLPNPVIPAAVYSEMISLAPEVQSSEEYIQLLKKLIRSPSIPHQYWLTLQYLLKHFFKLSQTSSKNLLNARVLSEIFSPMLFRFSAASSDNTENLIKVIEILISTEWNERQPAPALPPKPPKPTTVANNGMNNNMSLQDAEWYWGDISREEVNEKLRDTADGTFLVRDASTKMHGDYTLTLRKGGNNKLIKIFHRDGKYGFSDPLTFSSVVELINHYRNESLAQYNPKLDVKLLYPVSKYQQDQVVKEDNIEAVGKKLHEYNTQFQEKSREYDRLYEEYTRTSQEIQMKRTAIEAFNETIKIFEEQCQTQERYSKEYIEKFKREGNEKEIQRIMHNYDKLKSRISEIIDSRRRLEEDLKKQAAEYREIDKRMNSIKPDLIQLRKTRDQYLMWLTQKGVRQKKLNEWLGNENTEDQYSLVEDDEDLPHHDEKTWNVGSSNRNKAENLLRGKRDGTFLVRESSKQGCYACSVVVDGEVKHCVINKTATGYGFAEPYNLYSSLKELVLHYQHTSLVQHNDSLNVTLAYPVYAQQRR

Cc1nc(NC(=O)CCOCCOCCOCCOCCN)sc1-c1ccc(Cl)c(S(C)(=O)=O)c1.Cl [phenylthiazole ligand 1, 3-(2-{2-[2-(2-amino-ethoxy)-ethoxy]-ethoxy}-ethoxy)-N-[5-(4-chloro-3-methanesulfonyl-phenyl)-4-methyl-thiazol-2yl]-propionamide hydrochloride]
Capture (pull down) of PI3K gamma from the cell lysate [1]: captures | Capture (pull down) of PI3K delta from the cell lysate [2]: captures
